This is an account of results in patent US20230398130A1, “METHODS AND COMPOSITIONS FOR DIFFERENTIATING STEM CELLS” (Massachusetts Institute of Technology, priority 2020, published 2023).

What all share (format): cell-based, murine
One experiment deals with ISC-enriched organoids. Kind of experiment: Primary screen, 384-well 2.5-D organoid differentiation (ENR+CD, 6 days): carbachol-induced lysozyme secretion (LYZ.S). The following applies: primary screen; for Z.LYZ.S: standard z score; for SSMD.LYZ.S: strictly standardized mean difference. The text has this: High-throughput screening.
The subject of experiment [1] is ENR+CD differentiating organoids. Put plainly: Longitudinal single-cell RNA-seq (Seq-Well) of organoid differentiation, ENR+CD with or without 160 nM KPT-330. From the text: For time points beyond 2 days, media was refreshed every other day. Following the Seq-Well protocol Applicants followed a standard library preparation, sequencing, and alignment process (see Methods). […] Single-cell RNA-sequencing. A single-cell suspension was obtained from organoids cultured under conditions for the differentiation time course as described above. Applicants utilized the Seq-Well platform for massively parallel scRNA-seq to capture transcriptomes of single cells on barcoded mRNA capture beads. […] In brief, 20,000 cells from one organoid condition were loaded onto one array containing 100,000 barcoded mRNA capture beads. The loaded arrays containing cells and beads were then sealed using a polycarbonate membrane with a pore size of […], which allows for exchange of buffers but retains biological molecules confined within each microwell. Subsequent exchange of buffers allows for cell lysis, transcript hybridization, and bead recovery before performing reverse transcription en masse. Following reverse transcription and exonuclease treatment to remove excess primers, PCR amplification was carried out using KAPA HiFi PCR Mastermix with 2,000 beads per 50 μL reaction volume. Libraries were then pooled and purified using Agencourt AMPure XP beads (Beckman Coulter, A63881) by a 0.6×SPRI followed by a 0.8×SPRI and quantified using Qubit […] (Thermo Fisher). Libraries were constructed using the Nextera Tagmentation method on a total of 800 pg of pooled cDNA library per sample. […] Arrays were sequenced with an Illumina NovaSeq System. The read structure was paired end with Read 1 starting from a custom read 1 primer containing 20 bases with a 12 bp cell barcode and 8 bp unique molecular identifier (UMI) and Read 2 being 50 bases containing transcript information. Single-cell RNA-sequencing computational pipelines and analysis. […] Briefly, for each sequencing run, raw sequencing data was converted to demultiplexed FASTQ files using bcl2fastq2 based on Nextera N700 indices corresponding to individual samples/arrays. […] Individual reads were tagged according to the 12-bp barcode sequencing and the 8-bp UMI contained in Read 1 of each fragment. Following alignment, reads were binned onto 12-bp cell barcodes and collapsed by their 8-bp UMI. Digital gene expression matrices (e.g. cell by gene tables) for each sample were obtained from quality filtered and mapped reads and UMI-collapsed data, are deposited in GSE100274, and were utilized as input into Seurat v3 for further analysis. […] Applicants collected 17 samples at the following timepoints: 6 hours (0.25 days), and 1, 2, 3, 4, or 6 days. […] For time points beyond 2 days, media was refreshed every other day. […] Murine and human single-cell RNA-sequencing and alignment. […] Excess Matrigel was removed per previously described washing protocol, and organoids were resuspended in TrypLE at 37 C for 15 min, with vigorous homogenization through a p200 pipette tip every 5 min. After 15 min, the suspension was passed through a 30 uM cell strainer twice, and counted under brightfield microscopy with trypan blue staining for viable single cells. For human organoid scRNA-seq, antibody-based cell hashing was performed, with all samples pooled following labeling and three washes in FACS buffer to remove excess antibody. Each sample was manually counted to equally weight in cell pools, and then the pool was split and processed as four identical samples.

The next experiment has as its system intestinal organoids. Put plainly: Population RNA-sequencing of organoids. On the procedure: Population RNA-sequencing. Population RNA-seq was performed using a derivative of the Smart-Seq2 protocol for single cells. In brief, organoid media was aspirated and RLT+BME (Qiagen) was added to each well, and plate shaken for 30 minutes to fully lyse. Lysate was aliquoted into 4 identical fractions and stored at −80° C. until reverse transcription. RNA lysate was thawed and cleaned with a 2.2×SPRI ratio using Agencourt RNAClean XP beads (Beckman Coulter, A63987). RNA-seq was performed on a bulk population of […] using Smart-Seq2 chemistry, starting with a 2.2×SPRI ratio cleanup. After oligo-dT priming, Maxima H Minus Reverse Transcriptase (ThermoFisher EP0753) was used to synthesize cDNA with an elongation step at 52° C. before PCR amplification (15 cycles for tissue, 18 cycles for sorted basal cells) using KAPA HiFi PCR Mastermix (Kapa Biosystems KK2602). Sequencing libraries were prepared using the Nextera XT DNA tagmentation kit (Illumina FC-131-1096) with 250 pg input for each sample. Libraries were pooled post-Nextera and cleaned using Agencourt AMPure SPRI beads with successive 0.7× and 0.8× ratio SPRIs and sequenced with an Illumina 75 Cycle NextSeq500/550v2 kit (Illumina FC-404-2005) with loading density at 2.2 pM, with paired end 35 cycle read structure. Samples were sequenced at an average read depth of 8.44 million reads per sample and a total of 96 samples.
Organoid samples were aligned to the Mm10 genome and transcriptome using STAR and RSEM. […] For module scoring with the in vivo Paneth and enteroendocrine cell-defining genes, Applicants used previously published gene sets and computed persample module scores through the Seurat package.

The mark [2] stands for this setting: 1st of the 4 dose lines of the treatment (dose not given).
Setting [3] is: 2nd of the 4 dose lines of the treatment (dose not given).
Setting [4] is: 3rd of the 4 dose lines of the treatment (dose not given).
[5] abbreviates: 4th of the 4 dose lines of the treatment (dose not given).

Entries after “also recorded” stand apart in the source; their conditions may differ.

Consider `O=C(/C=C\n1cnc(-c2cc(C(F)(F)F)cc(C(F)(F)F)c2)n1)NNc1cnccn1` [KPT-330], for which the Z.LYZ.S was 1.677 with ISC-enriched organoids (setting [2]), −1.821 in the experiment with ISC-enriched organoids (setting [3]), −2.523 in the experiment on ISC-enriched organoids (setting [4]) and −2.733 with ISC-enriched organoids (setting [5]). The SSMD.LYZ.S was 1.329 in the experiment with ISC-enriched organoids (setting [2]), −0.894 in the experiment with ISC-enriched organoids (setting [3]), −1.575 with ISC-enriched organoids (setting [4]) and −1.599 in the experiment on ISC-enriched organoids (setting [5]). For the same molecule, the “organoid cell type composition over differentiation time course” value in experiment [1] (160 nM KPT-330 vs control, day 0.25-6) was “enhances stem conversion to mature cells; also recorded: relative depletion of stem I (and stem II & III) and enteroendocrine cells over time along with the corresponding enrichment of enterocytes and Paneth cells”. Moreover, the “inferred signaling pathway activity (PROGENy), effect of KPT-330” value in experiment [1] (Cohen's d per pathway and cell type) was “pan-epithelial increase in stress-associated Trail signaling”. In addition, in experiment [1] (Fisher's exact test per cell type), the “inferred upstream TF activity clusters (DoRothEA), effect of KPT-330” value was “depletion of cell cycle cluster 0 and enrichment in stress response cluster 6”. For the same molecule, the “active and quiescent ISC signature” value in experiment [1] (early stem cell populations, KPT-330 vs control) was “induces a quiescent ISC signature and reduces an active ISC signature; also recorded: transition into quiescence”. Further, in experiment [1] (stem II/III populations, day 0.25-2), the “differentially expressed genes, KPT-330 treated vs untreated” value was “most significantly enriched (Xpo1) and depleted (Kpnb1”. Also, the “gene set enrichment analysis (MSigDB hallmark v7)” value in experiment [1] (stem II/III populations, day 0.25-2, FDR<0.05) was “suppresses programs downstream of mitogen-driven signaling”. The “secretory cell identity (Paneth, goblet, EEC) from bulk transcripts” value in the experiment with intestinal organoids (ENR+CV, ENR+CD or ENR organoids) is “increase secretory cells (Paneth, goblet, and EEC)”. Besides, the “number of differentially expressed genes” value in the experiment with intestinal organoids (hits compared, ENR and ENR+CD) is “the most differentially expressed genes”.
